# Values joined by “and” are separate entries in the source; they are usually repeats but may differ in a detail not shown here. Equal values may be shown once. Read-outs that look alike come from different tables or passages of the source. Marks after values point to notes of the source that are not given here.
# Key:
# [1] = tested on: MRSA, MRSE, and VRE; assay: MIC assays against MRSA, MRSE, and VRE (all strains); settings: in words
# [2] = tested on: MRSA-1707 biofilms; assay: CBD pulse experiments (two sequential 24 hour treatments); format: cell-based, Staphylococcus aureus; settings: two sequential 24 hour compound treatments
# [3] = tested on: MRSA BAA-1707; assay: MIC, broth microdilution (CLSI); settings: 0.10 = lowest concentration tested; for MRSA BAA-1707 MIC: 16 to 18 hours at 37° C.
# [4] = tested on: MRSE 35984; assay: MIC, broth microdilution (CLSI); settings: for MRSE 35984 MIC: 16 to 18 hours at 37° C.
# [5] = tested on: VRE 700221; assay: MIC, broth microdilution (CLSI); settings: 16 to 18 hours at 37° C.
# [6] = tested on: MRSA BAA-1707 biofilms; assay: Calgary Biofilm Device (CBD) assay, MBC/MBEC; settings: for MRSA BAA-1707 MBEC / MRSA BAA-1707 MBC: CBD; for MRSA BAA-1707 MBEC: biofilm eradication; for MRSA BAA-1707 MBC: planktonic killing
# [7] = tested on: VRE 700221 biofilms; assay: Calgary Biofilm Device (CBD) assay, MBC/MBEC; settings: for VRE 700221 MBC: planktonic killing
# [8] = tested on: M. tuberculosis H37Ra (ATCC 25177); assay: MIC assay for Mycobacterium tuberculosis; format: cell-based; settings: read-out: MtB H37Ra MIC
# Description: The culture was then diluted with fresh medium until an OD600 of 0.01 was reached. […] The final DMSO concentration was maintained at 0.5%. […] Three rows were reserved for each compound. […] OD600 absorbance was recorded using SPECTRAMAX M5 (Molecular Devices). Data obtained from three independent experiments were analyzed using Excel.
# The culture was then diluted with fresh medium until an OD600 of 0.01 was reached. […] The final DMSO concentration was maintained at 0.5%. […] Three rows were reserved for each compound. […] OD600 absorbance was recorded using SpectraMax M5 (Molecular Devices). Data obtained from three independent experiments were analyzed using Excel.
# [9] = tested on: HeLa cells
# [10] = tested on: MRSA-2 biofilms; assay: Calgary Biofilm Device (CBD) assay, MBC/MBEC; settings: CBD; for MRSA-2 MBEC: biofilm eradication; for MRSA-2 MBC: planktonic killing
# [11] = tested on: MRSA BAA-44 biofilms; assay: Calgary Biofilm Device (CBD) assay, MBC/MBEC; settings: for MRSA BAA-44 MBEC: biofilm eradication; for MRSA BAA-44 MBC: planktonic killing
# [12] = tested on: MRSE 35984 biofilms; assay: Calgary Biofilm Device (CBD) assay, MBC/MBEC; settings: CBD; for MRSE 35984 MBEC: biofilm eradication; for MRSE 35984 MBC: planktonic killing
# [13] = tested on: human red blood cells
# [14] = tested on: MRSA-2; assay: MIC, broth microdilution (CLSI); settings: for MRSA-2 MIC: 16 to 18 hours at 37° C.
# [15] = tested on: MRSA BAA-1707; assay: Macromolecular synthesis inhibition assay; format: cell-based, Staphylococcus aureus
# Description: Macromolecular synthesis experiments were carried out in methicillin-resistant Staphylococcus aureus BAA-1707. An overnight culture (100 μL) of S. aureus BAA-1707 was sub-cultured into 10 mL of fresh TSBG media, which was allowed to grow to exponential phase (OD600=0.2−0.3) before transferring 500 μL to each well in a 24 well-plate. The test compounds and vehicle control (DMSO) were added to achieve the desired concentrations relative to their MIC values against S. aureus BAA-1707. Treated cultures were then incubated at 37° C. for 30 minutes before radioactive precursors for DNA ([^3H] thymidine (0.5 μCi)), RNA ([^3H] uridine (0.5 μCi)) and protein ([^3H] leucine (1 μCi)) were added. […] DMSO served as the negative control. DNA and RNA radiolabeled cultures were then incubated in 37° C. for 15 minutes before being stopped by adding 60 μL of cold 5% trichloroacetic acid (TCA). The protein synthesis experiment was stopped after 40 minutes by adding 60 μL cold TCA. These mixtures were then incubated at 2° C. for at least 30 minutes before the contents of the plates were transferred onto glass microfiber filters (24 mm) and washed 5 times with 1 mL of 5% TCA. The filters are allowed to dry overnight before 3.5 mL of the scintillation fluid was added to the scintillation vials containing the filters and the radiation counts were measured using liquid scintillation LS 6500.
# For these experiments, MRSA-1707 cultures were treated with [^3H]-thymidine (DNA biosynthesis), [^3H]-uridine (RNA biosynthesis) and [^3H]-leucine (protein biosynthesis) in the presence of HP 1 and antibiotic controls (4-16×MIC).
# [16] = LDH release assay for HeLa cytotoxicity; settings: human, HeLa cells
# [17] = tested on: MRSA-1; assay: MIC, broth microdilution (CLSI)
# [18] = tested on: MRSA BAA-1707; assay: Metal(II)-cation co-treatment MIC assay; format: cell-based; settings: Staphylococcus aureus
# [19] = UV-Vis metal(II) binding; format: physicochemical; settings: kinetics of UV-Vis experiments
# Description: Spectral scanning was performed from 200 to 800 nm in 2 nm increments.
# [20] = tested on: HeLa cells; assay: LDH release assay for HeLa cytotoxicity
# [21] = tested on: S. epi 12228; assay: MIC, broth microdilution (CLSI); settings: Staphylococcus epidermidis, 12228, read-out: S. epi 12228 MIC
# [22] = Mycobacterium tuberculosis, 168 h, seven days at 37° C.
# [23] = copper(II) at 200 μM, read-out: MIC w/ Cu2+
smiles,measurement,setting,value
OC[C@H]1O[C@@H](Oc2c(Br)cc(Br)c3nc4ccccc4nc23)[C@H](O)[C@@H](O)[C@@H]1O [79A],activity in MIC assays,[1],no activity in MIC assays
COCCOCCOCCOC(=O)OCOc1c(Br)cc(Br)c2nc3ccccc3nc12 [80A],activity in MIC assays,[1],no activity in MIC assays
O=C(OCCOCCOCCOCCO)OCOc1c(Br)cc(Br)c2nc3ccccc3nc12 [82A],activity in MIC assays,[1],no activity in MIC assays
O=C(OCCSSCCOC(=O)c1ccccc1)OCOc1c(Br)cc(Br)c2nc3ccccc3nc12 [85A],activity in MIC assays,[1],no antibacterial activity against any pathogen tested
"CCCCCCCCCCCCCCCC[N+](C)(C)Cc1ccccc1.[Cl-] [BAC-16, reference compound]",MBEC (pulse treatment),[2],25 µM
same,MRSA BAA-1707 MIC,[3],1.56 µM
same,MRSE 35984 MIC,[4],1.56 µM
same,VRE 700221 MIC,[5],3.13 µM
same,MRSA BAA-1707 MBEC,[6],15.6 µM
same,MRSA BAA-1707 MBC,[6],31.3 µM
same,VRE 700221 MBEC,"[7]; CBD, biofilm eradication",3.0 µM
same,VRE 700221 MBC,[7]; CBD,5.9 µM
Oc1c(Br)cc(Br)c2nc3ccccc3nc12 [Compound 1A],MIC,[8],25 µM
same,IC50,[9],> 100 µM
same,MRSE 35984 MIC,[4],1.17^a μM and 1.17 μM
same,VRE 700221 MIC,[5],6.25 µM
same,MRSA BAA-1707 MBEC,[6],150 µM
same,MRSA BAA-1707 MBC,[6],37.5 µM and 18.8 µM
same,MRSA-2 MBEC,[10],100 µM
same,MRSA-2 MBC,[10],50 µM
same,MRSA BAA-44 MBEC,[11],150 µM
same,MRSA BAA-44 MBC,[11],375 µM
same,MRSE 35984 MBEC,[12],100 µM
same,MRSE 35984 MBC,[12],50 µM
same,VRE 700221 MBC,[7]; CBD,23.5 µM
CCc1ccc2nc3c(O)c(Br)cc(Br)c3nc2c1 [Compound 53A],MIC,[8],6.25 µM
same,Hemolysis at 200 μM,[13],3.0%
same,MRSA BAA-1707 MIC,[3],0.1^b μM
same,MRSA-2 MIC,[14],0.59^a μM
same,MRSE 35984 MIC,[4],0.1^b μM
same,VRE 700221 MIC,[5],2.35^a μM
same,MRSA BAA-1707 MBEC,[6],150 µM
same,MRSA BAA-1707 MBC,[6],75 µM
same,MRSA-2 MBEC,[10],150 µM
same,MRSA-2 MBC,[10],75 µM
same,MRSA BAA-44 MBEC,[11],75^a/75^a μM
same,MRSA BAA-44 MBC,[11],75^a/75^a μM
same,MRSE 35984 MBEC,[12],75 µM
same,MRSE 35984 MBC,[12],50 µM
"Oc1c(Br)cc(Br)c2nc3ccccc3nc12 [HP 1, 2,4-dibromophenazin-1-ol]",MIC,[8]; [22],25 µM
same,RNA biosynthesis inhibition ([3H]-uridine),[15]; at 4×MIC,inhibits both RNA and protein biosynthesis
same,protein biosynthesis inhibition ([3H]-leucine),[15]; at 4×MIC,inhibits both RNA and protein biosynthesis
same,DNA biosynthesis inhibition ([3H]-thymidine),[15]; at 8×MIC,does not inhibit DNA biosynthesis
same,Hemolysis at 200 μM,"[13]; human, 1 h, 200 μM, pH 7.2",≤1%
same,IC50 at 24 h,[16],100 µM
Oc1c(Br)cc(Br)c2nc3c(O)c(Br)cc(Br)c3nc12 [HP 1-15],MRSA BAA-1707 MIC,[3],>50 µM
same,MRSA-1 MIC,[17]; 16 to 18 hours at 37° C.,>50 ^ μM
same,MRSA-2 MIC,[14],>50 µM
same,MRSE 35984 MIC,[4],>50 µM
same,VRE 700221 MIC,[5],>50 µM
Cc1ccc2nc3c(Br)cc(Br)c(O)c3nc2c1 [HP 1-20],melting point,,213 to 215 °C
Oc1c(Br)cc(Br)c2nc3c(Cl)cccc3nc12 [HP 1-21],MIC,[8]; [22],50 µM
same,MIC,[18]; [23],6.25 µM
same,rate of copper(II) chelation,[19],faster rate than HP 1
same,Hemolysis at 200 μM,"[13]; human, 1 h, 200 μM, pH 7.2",≤1%
Oc1c(Br)cc(Br)c2nc3c(Br)cccc3nc12 [HP 1-23],MIC,[8]; [22],25 µM
same,Hemolysis at 200 μM,"[13]; human, 1 h, 200 μM, pH 7.2",5.1%
same,IC50 at 24 h,[16],> 100 µM
same,selectivity index (HeLa IC50 to MRSA BAA-1707 MIC),[20],"> 2,000 fold"
COCCOCCOCCOCCOC(=O)Oc1c(Br)cc(Br)c2nc3c(C)cccc3nc12 [HP 1-25],MIC,[8]; [22],12.5 µM
same,HeLa cell cytotoxicity at 100 μM,[9],no HeLa cell cytotoxicity
same,Hemolysis at 200 μM,"[13]; human, 1 h, 200 μM, pH 7.2",≤1%
same,MIC,[21],0.1 µM
"c1ccc(CN(CCN(Cc2ccccn2)Cc2ccccn2)Cc2ccccn2)nc1 [TPEN, N,N,N′,N′-tetrakis(2-pyridylmethyl)ethane-1,2-diamine, reference compound]",MIC,[18]; [23],500 µM
same,MIC,"[18]; iron(II) at 200 μM, read-out: MIC w/ Fe2+",125 µM
same,MIC,"[18]; magnesium(II) at 200 μM, read-out: MIC w/ Mg2+",62.5 µM
same,MIC,"[18]; no metal(II) cation added, read-out: MIC",46.9 µM
same,MIC,"[18]; zinc(II) at 200 μM, read-out: MIC w/ Zn2+",250 µM
same,Hemolysis at 200 μM,"[13]; human, 1 h, 200 μM, pH 7.2",≤1%
same,MRSA BAA-1707 MIC,[3],50 ^ μM
same,MIC,"[3]; Staphylococcus aureus, BAA1707|MRSA, read-out: MRSA BAA-1707 MIC, 16 to 18 hours at 37° C.",46.9 µM
same,MIC,"[17]; Staphylococcus aureus, MRSA, read-out: MRSA-1 MIC",75 µM
same,MIC,"[14]; Staphylococcus aureus, MRSA, read-out: MRSA-2 MIC",50 µM
same,MIC,"[4]; Staphylococcus epidermidis, MRSE, read-out: MRSE 35984 MIC, 16 to 18 hours at 37° C.",12.5 µM
same,MRSA BAA-1707 MBC,[6],250 µM
same,MBC,"[6]; Staphylococcus aureus, BAA1707|MRSA, read-out: MRSA BAA-1707 MBC, CBD, planktonic killing",375 µM
same,MBC,"[7]; Enterococcus, VRE, read-out: VRE 700221 MBC",188 µM

# Reference: US11053205B2, “Phenazine derivatives as antimicrobial agents” (University of Florida Research Foundation, Incorporated, priority 2017, dated 2021)
